This is an account of results in PubChem BioAssay AID1259408 (Genetic Toxicology Data Bank (GENE-TOX), 2018).

Activity calls are given as the source filed them. The rule behind the calls is not given here.

In the series the test system is GENE-TOX genotoxicity assays, various organisms and cells. Nature of the series: GENE-TOX mutagenicity studies.
The mark [1] stands for this setting: Species/Cell Type: Mammalian polychromatic erythrocytes, Assay Type: Micronucleus test, chromosome aberrations, Assay Code: MNT+U, Dose Response: Unconfirmed positive response, Evaluation Type: Evaluation B (Post-1980).
Setting [2] is: Species/Cell Type: Bacillus subtilis (H17 vs M45), Assay Type: Rec-assay, spot test, DNA effects (bacterial DNA repair), Assay Code: REWT, Evaluation Type: Evaluation A (Pre-1980).
Where [3] appears, read: Species/Cell Type: Human diploid fibroblasts, Assay Type: Unscheduled DNA synthesis (UDS) in vitro, DNA effects, Assay Code: UDH-, Evaluation Type: Evaluation A (Pre-1980).
The mark [4] stands for this setting: Species/Cell Type: Bacillus subtilis (H17 vs M45T), Assay Type: Rec-assay, spot test, DNA effects (bacterial DNA repair), Assay Code: REXT, Evaluation Type: Evaluation A (Pre-1980).
[5] abbreviates: Species/Cell Type: Human lymphocytes, Assay Type: Sister-chromatid exchange (SCE) in vitro, Assay Code: SCLT, Evaluation Type: Evaluation B (Post-1980).
Setting [6] is: Species/Cell Type: Human, Assay Type: Sister-chromatid exchange (SCE) in vitro, Assay Code: SC1T, Evaluation Type: Evaluation B (Post-1980).
[7] abbreviates: Species/Cell Type: Nonhuman, Assay Type: Sister-chromatid exchange (SCE) in vivo, Assay Code: SC3T, Evaluation Type: Evaluation B (Post-1980).
[8] abbreviates: Species/Cell Type: Salmonella typhimurium (one or more of the five standard strains: TA98, TA100, TA1535, TA1537, and TA1538), Assay Type: Histidine reverse gene mutation, Ames assay, Assay Code: SAL+*, Activation: With metabolic activation, Evaluation Type: Evaluation A (Pre-1980).

As for `Cn1cnc2c1c(=O)[nH]c(=O)n2C`, the mutagenic call was “inactive; negative” (Species/Cell Type: Allium cepa, Assay Type: Chromosome aberrations, Assay Code: ALC-, Evaluation Type: Evaluation A (Pre-1980)); “active; positive” (Species/Cell Type: Human lymphocytes, Assay Type: Sister-chromatid exchange (SCE) in vitro, Assay Code: SCL+, Evaluation Type: Evaluation B (Post-1980)); “active; positive” (Species/Cell Type: Human, Assay Type: Sister-chromatid exchange (SCE) in vitro, Assay Code: SC1+, Evaluation Type: Evaluation B (Post-1980)); “active; positive” under setting [1]; “active; positive” (Species/Cell Type: Nonhuman, Assay Type: Sister-chromatid exchange (SCE) in vitro, Assay Code: SC2+D, Dose Response: With dose response, Evaluation Type: Evaluation B (Post-1980)); “active; positive” (Species/Cell Type: Nonhuman, Sex: Female, Assay Type: Sister-chromatid exchange (SCE) in vivo, Assay Code: SC3+DF, Dose Response: With dose response, Evaluation Type: Evaluation B (Post-1980)). For the same molecule, the mutagenic call (Species/Cell Type: Nonhuman, Sex: Male, Assay Type: Sister-chromatid exchange (SCE) in vivo, Assay Code: SC3+DM, Dose Response: With dose response, Evaluation Type: Evaluation B (Post-1980)) was “active; positive”.
Consider `COP(=S)(OC)SCn1nnc2ccccc2c1=O`, for which the mutagenic call was “no conclusion” under setting [2]; “no conclusion” (Species/Cell Type: Drosophila melanogaster, Assay Type: Sex-linked recessive lethal gene mutation, Assay Code: SRLT, Evaluation Type: Evaluation A (Pre-1980)); “inactive; negative” (Species/Cell Type: Escherichia coli WP2 UVRA, Assay Type: Tryptophan reverse gene mutation, Assay Code: WPU-*, Activation: With metabolic activation, Evaluation Type: Evaluation A (Pre-1980)); “no conclusion” (Species/Cell Type: Escherichia coli polA (W3119 vs P3478), Assay Type: Rec-assay, DNA effects (bacterial DNA repair), Assay Code: RE1T, Evaluation Type: Evaluation A (Pre-1980)); “inactive; negative” under setting [3]; “inactive; negative” (Species/Cell Type: Nonhuman, Assay Type: Sister-chromatid exchange (SCE) in vitro, Assay Code: SC2-, Evaluation Type: Evaluation B (Post-1980)). Also, the mutagenic call by setting is: (Species/Cell Type: Saccharomyces cerevisiae, Assay Type: Mitotic recombination or gene conversion, Assay Code: YEH+, Evaluation Type: Evaluation A (Pre-1980)) “active; positive”; (Species/Cell Type: Salmonella typhimurium (one or more of the five standard strains: TA98, TA100, TA1535, TA1537, and TA1538), Assay Type: Histidine reverse gene mutation, Ames assay, Assay Code: SALT, Evaluation Type: Evaluation A (Pre-1980)) “no conclusion”.
As to `O=C1C(c2[nH]c3ccc(S(=O)(=O)O)cc3c2O)=Nc2ccc(S(=O)(=O)O)cc21`, the mutagenic call was “no conclusion” under setting [2]; “no conclusion” under setting [4]; “inactive; negative” (Species/Cell Type: Saccharomyces cerevisiae, Assay Type: Mitotic recombination or gene conversion, Assay Code: YEC-, Evaluation Type: Evaluation A (Pre-1980)); “inactive; negative” (Species/Cell Type: Salmonella typhimurium (one or more of the five standard strains: TA98, TA100, TA1535, TA1537, and TA1538), Assay Type: Histidine reverse gene mutation, Ames assay, Assay Code: SAL-, Evaluation Type: Evaluation A (Pre-1980)).
On to `[Cl][Pt]([Cl])([Cl])[Cl]`, for which the mutagenic call was “active; positive” (Species/Cell Type: Bacillus subtilis (H17 vs M45), Assay Type: Rec-assay, spot test, DNA effects (bacterial DNA repair), Assay Code: REW+, Evaluation Type: Evaluation A (Pre-1980)) and “active; positive” (Species/Cell Type: Drosophila melanogaster, Assay Type: Sex-linked recessive lethal gene mutation, Assay Code: SRL+, Evaluation Type: Evaluation A (Pre-1980)).
For the molecule `O=C[C@H](O)[C@@H](O)[C@H](O[C@@H]1O[C@H](CO)[C@H](O)[C@H](O)[C@H]1O)[C@H](O)CO`, the mutagenic call reads like this: under setting [5], “no conclusion”; under setting [6], “no conclusion”; under setting [7], “no conclusion”.
Turning to `Oc1ccc2ccccc2c1N=Nc1ccc(N=Nc2ccccc2)cc1`, the mutagenic call under setting [4] is “no conclusion”.
For the molecule `NC(=O)N1C2=CC=CCC2=C(CO)c2ccccc21`, the mutagenic call by setting is: under setting [5], “no conclusion”; under setting [6], “no conclusion”.
For `CC[C@H](C)[C@@H]1NC(=O)CNC(=O)[C@@H]2Cc3c([nH]c4cc(O)ccc34)S(=O)C[C@H](NC(=O)CNC1=O)C(=O)N[C@@H](CC(N)=O)C(=O)N1C[C@H](O)C[C@H]1C(=O)N[C@@H]([C@@H](C)[C@@H](O)CO)C(=O)N2` (stereo not given in full), the mutagenic call (Species/Cell Type: Drosophila melanogaster, Assay Type: Aneuploidy, whole sex chromosome loss, chromosome aberrations, Assay Code: DACT, Evaluation Type: Evaluation A (Pre-1980)) is listed as “no conclusion”.
For `Cc1cc(=O)oc2cc(O)ccc12`, the mutagenic call (Species/Cell Type: Allium cepa, Assay Type: Chromosome aberrations, Assay Code: ALC+, Evaluation Type: Evaluation A (Pre-1980)) was “active; positive”.
Take `COc1nc2c(c(=O)n(C)c(=O)n2C)n1C`: the mutagenic call reads like this: (Species/Cell Type: Allium cepa, Assay Type: Chromosome aberrations, Assay Code: ALC+D, Dose Response: With dose response, Evaluation Type: Evaluation A (Pre-1980)) “active; positive”; (Species/Cell Type: Vicia faba, Assay Type: Chromosome aberrations, Assay Code: VIC+, Evaluation Type: Evaluation A (Pre-1980)) “active; positive”.
On to `CCc1cccc(O)c1`, for which the mutagenic call runs as follows: under setting [5], “no conclusion”; under setting [6], “no conclusion”.
Consider `CN/C(=C\[N+](=O)[O-])NCCSCc1ccc(CN(C)C)o1`, for which, under setting [7], the mutagenic call is “no conclusion”.
With `O=NN(CCO)CCCCO`, the mutagenic call under setting [8] is “active; positive”.
As for `CN=C(N)N`, under setting [3], the mutagenic call was “inactive; negative”.
In the case of `CC(=O)OCC[C@H](C=O)c1c(O)cc2c(c1O)C(=O)c1c(O)cc(O)cc1C2=O`, under setting [8], the mutagenic call was “active; positive”.
As for `O=[N+]([O-])c1ccc(SSc2ccc([N+](=O)[O-])cc2)cc1`, the mutagenic call (Species/Cell Type: Salmonella typhimurium (one or more of the five standard strains: TA98, TA100, TA1535, TA1537, and TA1538), Assay Type: Histidine reverse gene mutation, Ames assay, Assay Code: SAL+, Evaluation Type: Evaluation A (Pre-1980)) was “active; positive”.
For `O=S(O)S(=O)O`, the mutagenic call is reported as “no conclusion” under setting [5] and “no conclusion” under setting [6].
As to `CCCCC/C=C\C/C=C\C/C=C\CCCCC(=O)O`, the mutagenic call (Species/Cell Type: Mammalian polychromatic erythrocytes, Assay Type: Micronucleus test, chromosome aberrations, Assay Code: MNTT, Evaluation Type: Evaluation B (Post-1980)) is recorded as “no conclusion”.
For `CCSCCSP(=S)(OC)OC`, the mutagenic call under setting [1] is “active; positive”.
On to `CC(C)N(C(=O)SCC(Cl)=C(Cl)Cl)C(C)C`, for which the mutagenic call under setting [8] is “active; positive”.
As for `O=C1c2c(O)cccc2Cc2cccc(O)c21`, the mutagenic call by setting is: (Species/Cell Type: Mammalian polychromatic erythrocytes, Assay Type: Micronucleus test, chromosome aberrations, Assay Code: MNT-, Evaluation Type: Evaluation B (Post-1980)) “inactive; negative”; (Species/Cell Type: Saccharomyces cerevisiae, Assay Type: Mitotic recombination or gene conversion, Assay Code: YECT, Evaluation Type: Evaluation A (Pre-1980)) “no conclusion”.
